According to ChEMBL document CHEMBL5154921, “Discovery and Characterization of the First Nonpeptide Antagonists for the Relaxin-3/RXFP3 System” (J Med Chem, 2022):

Target: T1, Relaxin-3 receptor 1 (Homo sapiens, UniProt Q9NSD7)
T1 sequence (Q9NSD7 whole entry): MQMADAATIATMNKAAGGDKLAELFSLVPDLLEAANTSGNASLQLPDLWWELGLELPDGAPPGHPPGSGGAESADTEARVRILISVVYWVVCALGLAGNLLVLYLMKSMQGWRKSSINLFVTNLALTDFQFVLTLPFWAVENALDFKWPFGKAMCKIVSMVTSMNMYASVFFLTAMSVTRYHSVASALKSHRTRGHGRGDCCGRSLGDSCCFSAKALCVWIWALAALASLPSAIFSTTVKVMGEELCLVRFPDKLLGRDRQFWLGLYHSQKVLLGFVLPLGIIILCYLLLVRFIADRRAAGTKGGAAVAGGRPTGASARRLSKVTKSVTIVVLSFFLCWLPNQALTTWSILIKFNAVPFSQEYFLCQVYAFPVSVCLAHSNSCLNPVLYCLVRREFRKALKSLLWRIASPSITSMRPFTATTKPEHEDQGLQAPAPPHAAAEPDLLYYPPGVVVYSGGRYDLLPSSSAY
Assay: Antagonist activity at human RXFP3 expressed in CHO-K1 cells assessed as forskolin-induced cAMP accumulation measured after 30 mins in presence of relaxin-3 by TR-FRET assay
Assay type: functional, cell-based

IC50: > 10 µM
SMILES: Cc1ccc(-c2noc(-c3ccc(NC(=O)C4CC(=O)N(Cc5ccccn5)C4)cc3)n2)cc1 (stereo unspecified)
